In general, MIC refers to the smallest concentration in the dilution series that meets the test's criterion for growth inhibition. Low readings indicate inhibition by little substance, high ones a need for much substance.

MIC data for one molecule are collected here from US5455222A, “1-substituted-5-thiomethylthiocyanato-1H-tetrazoles, compositions containing them and their use as antimicrobial and marine antifouling agents” (The Dow Chemical Company, priority 1994, dated 1995).

Each structure is given as a SMILES string. Converted amounts (≈) assume the structure as drawn. Some results are limits rather than exact numbers.

One experiment deals with Trichoderma viride (Tv). The experiment can be described thus: Minimum inhibitory concentration (MIC), yeast/fungi in malt yeast agar. The settings on record: 30° C., 72 hours for fungi. Type of experiment: cell-based, Trichoderma viride ATCC 8678. As to the method:
(§1) The minimum inhibitory concentration (MIC) for the compounds listed in Table I is determined for 9 bacteria, using nutrient agar, and 7 yeast and fungi, using malt yeast agar. A one percent solution of the test compound is prepared in a mixture of acetone and water.
(§2) Malt yeast agar is prepared by adding 3 g yeast extract and 45 g malt agar per liter of deionized water. The specific agar is dispensed in 30 mL aliquots into 25×200 mm test tubes, capped and autoclaved for 15 minutes at 115° C.
(§3) The test tubes containing the agar are cooled in a water bath until the temperature of the agar is 48° C. Then, an appropriate amount of the one percent solution of the test compound is added (except in the controls where no compound is added) to the respective test tubes so that the final concentrations are 500, 250, 100, 50, 25, 10, 5, 2.5, 1.0 and zero parts per million of the test compound in the agar, thus having a known concentration of test compound dispersed therein. The contents of the test tubes are then transferred to respective petri plates. After drying for 24 hours, the petri plates containing nutrient agar are inoculated with bacteria and those containing malt yeast agar are inoculated with yeast and fungi.
(§4) The inoculation with the yeast and fungi is accomplished as follows. Cultures of yeast and fungi are incubated for seven days on malt yeast agar at 30° C. These cultures are used to prepare suspensions by the following procedure. A suspension of each organism is prepared by adding 10 mL of sterile saline and 10 microliters of octylphenoxy polyethoxy ethanol to the agar slant of yeast or fungi. The sterile saline/octylphenoxy polyethoxy ethanol solution is then agitated with a sterile swab to suspend the microorganism grown on the slant. Each resulting suspension is diluted into sterile saline (1 part suspension to 9 parts sterile saline). Aliquots of these dilutions are placed in individual wells of Steer's Replicator and petri plates inoculated as previously described. The petri plates are incubated at 30° C. and read after 48 hours for yeast and 72 hours for fungi.
(§5) Table II lists the bacteria, yeast and fungi used in the MIC test described above along with their respective American Type Culture Collection (ATCC) identification numbers.
(§6) In Tables III and IV, the MIC values of the compounds described in Table I as compared to the MIC of a standard commercial preservative (with 1-(3-chloroallyl)-3,5,7-triaza-1-azoniaadamantane chloride as the active agent and referred to in Tables III and IV as "STANDARD I") are set forth for the bacteria organisms and yeast/fungi organisms which are listed in Table II.
For the molecule `Cc1ccc(-n2nnnc2SCSC#N)cc1` [VII, 1-(4-Methylphenyl)-5-thiomethylthiocyanato-1H-tetrazole], the MIC is 10 µg/mL (≈ 38 µM).

The test system of another experiment is Salmonella choleraesuis (Sc). The experiment can be described thus: Minimum inhibitory concentration (MIC), bacteria in nutrient agar. Type of experiment: cell-based, Salmonella choleraesuis ATCC 10708. The settings on record: Salmonella enterica, nutrient agar pH 6.8, 30° C., 48 hours. On the procedure: as §1
(§7) Nutrient agar is prepared at pH 6.8, representing a neutral medium, and at pH 8.2, representing an alkaline medium. The nutrient agars are prepared by adding 23 g of nutrient agar to one liter of deionized water. In addition, the alkaline medium is prepared by adjusting a 0.04M solution of N-[tris-(hydroxymethyl)methyl]glycine buffered deionized water with concentrated sodium hydroxide to a pH of 8.5.
as §3
(§8) The inoculation with bacteria is accomplished by using the following procedure. Twenty-four hour-cultures of each of the bacteria are prepared by incubating the respective bacteria in tubes containing nutrient broth for 24 hours at 30° C. in a shaker. Dilutions of each of the 24 hour-cultures are made so that nine separate suspensions (one for each of the nine test bacteria) are made, each containing 10^8 colony forming units (CFU) per mL of suspension of a particular bacteria. Aliquots of 0.3 mL of each of the bacterial suspensions are used to fill the individual wells of Steer's Replicator. For each microbial suspension, 0.3 mL was used to fill three wells (i.e., three wells of 0.3 mL each) so that for the nine different bacteria, 27 wells are filled. The Steer's Replicator is then used to inoculate both the neutral and alkaline pH nutrient agar petri plates.
(§9) The inoculated petri plates are incubated at 30° C. for 48 hours and then read to determine if the test compound which is incorporated into the agar prevented growth of the respective bacteria.
as §5, §6
Molecule `Cc1ccc(-n2nnnc2SCSC#N)cc1` [VII, 1-(4-Methylphenyl)-5-thiomethylthiocyanato-1H-tetrazole] had a minimum inhibitory concentration (MIC) greater than 500 µg/mL.

The experiment is the same for the next values; noted with them: Salmonella enterica, nutrient agar pH 8.2, 30° C., 48 hours.
Take `Cc1ccc(-n2nnnc2SCSC#N)cc1` [VII, 1-(4-Methylphenyl)-5-thiomethylthiocyanato-1H-tetrazole]: the MIC was greater than 500 µg/mL.

The test system of another experiment is Candida albicans (Ca). The experiment can be described thus: Minimum inhibitory concentration (MIC), yeast/fungi in malt yeast agar. Type of experiment: cell-based, Candida albicans ATCC 10231. The conditions noted are these: 30° C., 48 hours for yeast. On the procedure:
as §1, §2, §3, §4, §5, §6
Consider `Cc1ccc(-n2nnnc2SCSC#N)cc1` [VII, 1-(4-Methylphenyl)-5-thiomethylthiocyanato-1H-tetrazole], for which it took 10 µg/mL (≈ 38 µM) to inhibit growth (MIC).

The test system of a further experiment is Escherichia coli (Ec). The experiment can be described thus: Minimum inhibitory concentration (MIC), bacteria in nutrient agar. The conditions noted are these: nutrient agar pH 6.8, 30° C., 48 hours. Type of experiment: cell-based, Escherichia coli ATCC 11229. On the procedure:
as §1, §7, §3, §8, §9, §5, §6
Molecule `Cc1ccc(-n2nnnc2SCSC#N)cc1` [VII, 1-(4-Methylphenyl)-5-thiomethylthiocyanato-1H-tetrazole] registered an MIC of 500 µg/mL (≈ 1900 µM).

Staying with this experiment, now noted: nutrient agar pH 8.2, 30° C., 48 hours.
With `Cc1ccc(-n2nnnc2SCSC#N)cc1` [VII, 1-(4-Methylphenyl)-5-thiomethylthiocyanato-1H-tetrazole], the minimal inhibitory concentration (MIC) is 500 µg/mL (≈ 1900 µM).

In a further experiment the test system is Enterobacter aerogenes (Ea). The description is as above. It is filed as cell-based, Enterobacter aerogenes ATCC 13048. The conditions noted are these: Klebsiella aerogenes; nutrient agar pH 6.8, 30° C., 48 hours. As to the method:
as §1, §7, §3, §8, §9, §5, §6
In the case of `Cc1ccc(-n2nnnc2SCSC#N)cc1` [VII, 1-(4-Methylphenyl)-5-thiomethylthiocyanato-1H-tetrazole], the MIC is greater than 500 µg/mL.

Staying with this experiment, now noted: Klebsiella aerogenes; nutrient agar pH 8.2, 30° C., 48 hours.
For the molecule `Cc1ccc(-n2nnnc2SCSC#N)cc1` [VII, 1-(4-Methylphenyl)-5-thiomethylthiocyanato-1H-tetrazole], the MIC was greater than 500 µg/mL.

For a further experiment, the system named is Fusarium oxysporum (Fo). The experiment can be described thus: Minimum inhibitory concentration (MIC), yeast/fungi in malt yeast agar. The conditions noted are these: 30° C., 72 hours for fungi. Type of experiment: cell-based, Fusarium oxysporum ATCC 48112. As to the method:
as §1, §2, §3, §4, §5, §6
In the case of `Cc1ccc(-n2nnnc2SCSC#N)cc1` [VII, 1-(4-Methylphenyl)-5-thiomethylthiocyanato-1H-tetrazole], the minimal inhibitory concentration (MIC) turned out to be 5 µg/mL (≈ 19 µM).

The next experiment deals with Aureobasidium pullulan (Ap). The description is as above. It is filed as cell-based, Aureobasidium pullulan ATCC 16622. The settings on record: 30° C., read after 48 hours for yeast and 72 hours for fungi. As to the method: as §1, §2, §3, §4, §5, §6
In turn, `Cc1ccc(-n2nnnc2SCSC#N)cc1` [VII, 1-(4-Methylphenyl)-5-thiomethylthiocyanato-1H-tetrazole] returned an MIC of less than 1 µg/mL.

Another experiment has as its system Staphylococcus aureus (Sa). The experiment can be described thus: Minimum inhibitory concentration (MIC), bacteria in nutrient agar. The conditions noted are these: nutrient agar pH 6.8, 30° C., 48 hours. Type of experiment: cell-based, Staphylococcus aureus ATCC 6538. As to the method:
as §1, §7, §3, §8, §9, §5, §6
Regarding `Cc1ccc(-n2nnnc2SCSC#N)cc1` [VII, 1-(4-Methylphenyl)-5-thiomethylthiocyanato-1H-tetrazole], the lowest concentration to inhibit growth (MIC) was 25 µg/mL (≈ 94.9 µM).

The same experiment, now with this note: nutrient agar pH 8.2, 30° C., 48 hours.
Consider `Cc1ccc(-n2nnnc2SCSC#N)cc1` [VII, 1-(4-Methylphenyl)-5-thiomethylthiocyanato-1H-tetrazole], for which the MIC was determined as 50 µg/mL (≈ 190 µM).

For a further experiment, the system named is Proteus vulgaris (Pv). The description is as above. Type of experiment: cell-based, Proteus vulgaris ATCC 881. The conditions noted are these: nutrient agar pH 6.8, 30° C., 48 hours. As to the method: as §1, §7, §3, §8, §9, §5, §6
Molecule `Cc1ccc(-n2nnnc2SCSC#N)cc1` [VII, 1-(4-Methylphenyl)-5-thiomethylthiocyanato-1H-tetrazole] showed an MIC of 100 µg/mL (≈ 380 µM).

Staying with this experiment, now noted: nutrient agar pH 8.2, 30° C., 48 hours.
`Cc1ccc(-n2nnnc2SCSC#N)cc1` [VII, 1-(4-Methylphenyl)-5-thiomethylthiocyanato-1H-tetrazole] displayed a minimal inhibitory concentration (MIC) of 250 µg/mL (≈ 949 µM).

In the next experiment the test system is Pseudomonas aeruginosa (PRD-10). The experiment is described as above. The settings on record: nutrient agar pH 6.8, 30° C., 48 hours. Type of experiment: cell-based, Pseudomonas aeruginosa ATCC 15442. On the procedure: as §1, §7, §3, §8, §9, §5, §6
In turn, `Cc1ccc(-n2nnnc2SCSC#N)cc1` [VII, 1-(4-Methylphenyl)-5-thiomethylthiocyanato-1H-tetrazole] came in with a minimal inhibitory concentration (MIC) of 500 µg/mL (≈ 1900 µM).

Staying with this experiment, now noted: nutrient agar pH 8.2, 30° C., 48 hours.
For the molecule `Cc1ccc(-n2nnnc2SCSC#N)cc1` [VII, 1-(4-Methylphenyl)-5-thiomethylthiocyanato-1H-tetrazole], the MIC stood at 250 µg/mL (≈ 949 µM).

Another experiment concerns Penicillium chrysogenum (Pc). The experiment can be described thus: Minimum inhibitory concentration (MIC), yeast/fungi in malt yeast agar. Type of experiment: cell-based, Penicillium chrysogenum ATCC 9480. The conditions noted are these: 30° C., 72 hours for fungi. As to the method:
as §1, §2, §3, §4, §5, §6
`Cc1ccc(-n2nnnc2SCSC#N)cc1` [VII, 1-(4-Methylphenyl)-5-thiomethylthiocyanato-1H-tetrazole] registered a minimum inhibitory concentration (MIC) of less than 1 µg/mL.

The next experiment deals with Bacillus subtilis (Bs). The experiment can be described thus: Minimum inhibitory concentration (MIC), bacteria in nutrient agar. It is filed as cell-based, Bacillus subtilis ATCC 8473. The conditions noted are these: nutrient agar pH 6.8, 30° C., 48 hours. On the procedure:
as §1, §7, §3, §8, §9, §5, §6
On to `Cc1ccc(-n2nnnc2SCSC#N)cc1` [VII, 1-(4-Methylphenyl)-5-thiomethylthiocyanato-1H-tetrazole], for which the MIC is less than 10 µg/mL.

The experiment is the same for the next values; noted with them: nutrient agar pH 8.2, 30° C., 48 hours.
In turn, `Cc1ccc(-n2nnnc2SCSC#N)cc1` [VII, 1-(4-Methylphenyl)-5-thiomethylthiocyanato-1H-tetrazole] showed a minimum inhibitory concentration (MIC) of less than 10 µg/mL.

The test system of another experiment is Klebsiella pneumoniae (Kp). The description is as above. Type of experiment: cell-based, Klebsiella pneumoniae ATCC 8308. The conditions noted are these: nutrient agar pH 6.8, 30° C., 48 hours. On the procedure: as §1, §7, §3, §8, §9, §5, §6
For `Cc1ccc(-n2nnnc2SCSC#N)cc1` [VII, 1-(4-Methylphenyl)-5-thiomethylthiocyanato-1H-tetrazole], the MIC turned out to be 250 µg/mL (≈ 949 µM).

Staying with this experiment, now noted: nutrient agar pH 8.2, 30° C., 48 hours.
`Cc1ccc(-n2nnnc2SCSC#N)cc1` [VII, 1-(4-Methylphenyl)-5-thiomethylthiocyanato-1H-tetrazole] returned an MIC of 100 µg/mL (≈ 380 µM).

In a further experiment the test system is Saccharomyces cerevisiae (Sc). The experiment can be described thus: Minimum inhibitory concentration (MIC), yeast/fungi in malt yeast agar. The conditions noted are these: 30° C., 48 hours for yeast. Type of experiment: cell-based, Saccharomyces cerevisiae ATCC 4105. On the procedure:
as §1, §2, §3, §4, §5, §6
Molecule `Cc1ccc(-n2nnnc2SCSC#N)cc1` [VII, 1-(4-Methylphenyl)-5-thiomethylthiocyanato-1H-tetrazole] returned an MIC of less than 1 µg/mL.

A further experiment deals with Aspergillus niger (An). The description is as above. It is filed as cell-based, Aspergillus niger ATCC 16404. The conditions noted are these: 30° C., 72 hours for fungi. As to the method: as §1, §2, §3, §4, §5, §6
Turning to `Cc1ccc(-n2nnnc2SCSC#N)cc1` [VII, 1-(4-Methylphenyl)-5-thiomethylthiocyanato-1H-tetrazole], the minimum inhibitory concentration (MIC) worked out at 2.5 µg/mL (≈ 9.49 µM).
